One experiment concerns the target T1, FXR (Homo sapiens (Human), UniProt Q96RI1). Description: transient human FXR/Gal4-luciferase reporter assay. The format is cell-based. The conditions noted are these: Gal4-hFXR LBD fusion in HEK293 reporter cells; relative to 8 μM GW-4064. The method, then: The exemplified compounds of the present invention were tested in the transient human FXR/Gal4-luciferase reporter assay, and assay results were described in the EXAMPLES section hereinbefore.
A Gal4-hFXR fusion construct reporter system was used as the primary assay to characterize compound activity. A construct including 5 copies of the Gal4 promoter response element upstream of a firefly luciferase reporter cDNA was stably expressed in HEK293 cells. This reporter cell line was maintained in Dulbecco's Modified Eagle's medium (DMEM; Gibco) supplemented with 1% penicillin-streptomycin (P/S) solution, 500 μg/ml Zeocin and 10% charcoal/dextran-treated fetal bovine serum (cs-FBS) at 37° C. in a humidified 5% CO2 atmosphere. Another plasmid was constructed in which the human cytomegalovirus promoter in the pcDNA3.1 vector directs the expression of the cDNA encoding a fusion protein comprised of the DNA binding domain from the Gal4 transcription factor fused to the ligand binding domain from human FXR.
The day prior to transfection, the reporter cells in culture are detached from the plate with trypsin and plated into a T75 flask at a sufficient density to achieve approximately 90% confluence the next morning. The transfection reagents are prepared by separately diluting 25 μg of the pcDNA3.1-Gal4-FXR plasmid into 1.87 mL of Opti-MEM (Thermo-Fisher), and 40 μL of Lipofectamine 2000 (Thermo-Fisher) into 1.87 mL of Opti-MEM, and then adding the diluted DNA solution into the diluted Lipofectamine 2000 solution and incubating at room temperature for 15-20 minutes. The mixture is further diluted with 10 mL of a solution comprised of DMEM, 10% cs-FBS, and 1% P/S immediately prior to transferring to the cells. The maintenance culture media is aspirated from the cells and the final transfection mixture is added before the cells are incubated overnight at 37° C. in a humidified 5% CO2 atmosphere. This protocol can be scaled up, and the transiently transfected cells can be cryopreserved in an assay-ready format.
For compound testing, 100 nL of the compounds (serial dilutions in DMSO) are dispensed with an Echo acoustic dispenser (Labcyte) into the wells of a Corning/Costar clear bottom 384-well white plate. The transfected cells are harvested, counted, and diluted such that 10-25,000 cells in 25 μL are plated into each well of the 384-well compound assay plate. The compound-treated cells are incubated overnight at 37° C. in a humidified 5% CO2 atmosphere. The next morning 25 μL of Steady-Glo (Promega) are added to each well of the plate, the mixture is incubated for 15 min. with shaking, and luminescence is measured on an Envision (Perkin Elmer) plate reader. Background counts from cells treated with DMSO alone are subtracted from all raw counts, and the corrected values are converted to a percentage of the control response attained with 8 μM GW-4064.
Background: A reporter such as luciferase makes a cellular process visible.
T1 sequence (Q96RI1 262-486): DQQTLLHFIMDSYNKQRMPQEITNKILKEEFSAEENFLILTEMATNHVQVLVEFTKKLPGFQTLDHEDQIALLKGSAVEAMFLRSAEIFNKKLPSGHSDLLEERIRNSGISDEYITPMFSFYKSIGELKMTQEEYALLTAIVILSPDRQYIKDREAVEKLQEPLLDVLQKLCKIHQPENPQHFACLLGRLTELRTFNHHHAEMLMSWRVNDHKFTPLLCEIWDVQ
Regarding `CCc1cc(OCC23CCC(OCc4c(-c5c(Cl)cncc5Cl)noc4C4CC4)(CC2)CC3)nn1CC(=O)O` [Example 524], the response was half-maximal at 1500 nM (EC50).

Take `O=C(O)c1cccc(COCC23CCC(OCc4c(-c5c(Cl)cncc5Cl)noc4C4CC4)(CC2)CC3)c1` [Example 525]: the EC50 (usually the concentration at which the effect is half-maximal) was 167 nM.

The compound `Cn1nc(C(=O)O)cc1OCC12CCC(OCc3c(-c4c(Cl)cncc4Cl)noc3C3CC3)(CC1)CC2` [Example 526] registered a concentration giving a half-maximal response (EC50) of 296 nM.

`O=C(O)c1cc(C(F)(F)F)cc(COCC23CCC(OCc4c(-c5c(Cl)cncc5Cl)noc4C4CC4)(CC2)CC3)n1` [Example 527] returned an EC50 of 86 nM.

Compound `O=C(O)c1cc(OCC23CCC(OCc4c(-c5c(Cl)cncc5Cl)noc4C4CC4)(CC2)CC3)nn1CC1CC1` [Example 528] yielded an EC50 of 16 nM. Against the preceding compound, the EC50 is about 5.4-fold lower.

Regarding `CCc1nc(C(=O)O)cc2ccc(OCC34CCC(OCc5c(-c6c(Cl)cncc6Cl)noc5C5CC5)(CC3)CC4)cc12` [Example 529], the response was half-maximal at 9 nM (EC50).

The compound `CCn1nc(OCC23CCC(OCc4c(-c5c(Cl)cncc5Cl)noc4C4CC4)(CC2)CC3)c(C)c1C(=O)O` [Example 530] yielded an EC50 of 219 nM. This EC50 lies about 24-fold higher than the previous one.

On to `Cc1c(OCC23CCC(OCc4c(-c5c(Cl)cncc5Cl)noc4C4CC4)(CC2)CC3)nn(C(C)C)c1C(=O)O` [Example 531], for which the midpoint of the response, the EC50, lay at 138 nM. Against the preceding compound, the EC50 is about 1.6-fold lower.

In turn, `Cc1c(OCC23CCC(OCc4c(-c5c(Cl)cncc5Cl)noc4C4CC4)(CC2)CC3)nn(CC2CC2)c1C(=O)O` [Example 532] yielded an EC50 of 148 nM. The EC50 values of the last two compounds are within 1.5-fold of each other.

For `Cc1c(OCC23CCC(OCc4c(-c5c(Cl)cncc5Cl)noc4C4CC4)(CC2)CC3)nn(CC2COC2)c1C(=O)O` [Example 533], the EC50 came to 1910 nM.

With `Cc1c(OCC23CCC(OCc4c(-c5c(Cl)cncc5Cl)noc4C4CC4)(CC2)CC3)nn(C)c1C(=O)O` [Example 534], the EC50 turned out to be 248 nM.

Consider `O=C(O)c1c(F)c(OCC23CCC(OCc4c(-c5c(Cl)cncc5Cl)noc4C4CC4)(CC2)CC3)nn1CC1CC1` [Example 535], for which the EC50 was found to be 50 nM.

On to `CC(F)(F)c1cc(OCC23CCC(OCc4c(-c5c(Cl)cncc5Cl)noc4C4CC4)(CC2)CC3)cnc1C(=O)O` [Example 536], for which the EC50 was 55 nM.

In turn, `CCn1nc(C(=O)O)cc1OCC12CCC(OCc3c(-c4c(Cl)cncc4Cl)noc3C3CC3)(CC1)CC2` [Example 537] yielded an EC50 of 79 nM. This EC50 and that of the compound before are within 1.5-fold of each other.

Take `O=C(O)c1ccn2cc(OCC34CCC(OCc5c(-c6c(Cl)cncc6Cl)noc5C5CC5)(CC3)CC4)nc2c1` [Example 538]: the EC50 stood at 90 nM.

`O=C(O)c1cc(OCC23CCC(OCc4c(-c5c(Cl)cncc5Cl)noc4C4CC4)(CC2)CC3)nn1C1CC1` [Example 539]: the EC50 was found to be 25 nM.

Compound `CCn1nc(C(=O)O)c(F)c1OCC12CCC(OCc3c(-c4c(Cl)cncc4Cl)noc3C3CC3)(CC1)CC2` [Example 540] came in with an EC50 of 345 nM.

The compound `O=C(O)c1cc(OCC23CCC(OCc4c(-c5c(Cl)cncc5Cl)noc4C4CC4)(CC2)CC3)n(C2CC2)n1` [Example 541] returned an EC50 of 59 nM.

For the compound `O=C(O)c1cnc(C#CC23CCC(OCc4c(-c5c(Cl)cncc5Cl)noc4C4CC4)(CC2)CC3)cn1` [Example 542], it took 4880 nM to reach a half-maximal effect (EC50). Compared with the last compound, the EC50 is about 83-fold higher.

With `O=C(O)c1cc(N2CCOCC2)c2nc(C34CCC(OCc5c(-c6c(Cl)cncc6Cl)noc5C5CC5)(CC3)CC4)ccc2c1` [Example 543], the EC50 amounted to 469 nM.

Compound `O=C(O)c1cc(OC2COC2)c2nc(C34CCC(OCc5c(-c6c(Cl)cncc6Cl)noc5C5CC5)(CC3)CC4)ccc2c1` [Example 544] showed an EC50 of 118 nM.

The compound `O=C(O)c1cc(C(F)(F)F)cn2c(C#CC34CCC(OCc5c(-c6c(Cl)cncc6Cl)noc5C5CC5)(CC3)CC4)cnc12` [Example 545] had an EC50 of 5 nM.

Regarding `CCc1cc(C(=O)O)c2ncc(C#CC34CCC(OCc5c(-c6c(Cl)cncc6Cl)noc5C5CC5)(CC3)CC4)n2c1` [Example 546], the EC50 was 7 nM. This EC50 and that of the compound before are within 1.5-fold of each other.

For `O=C(O)c1cc2ccc(Cl)cc2c(C#CC23CCC(OCc4c(-c5c(Cl)cncc5Cl)noc4C4CC4)(CC2)CC3)n1` [Example 547], the EC50 is 251 nM.

`O=C(O)c1cc2ccc(C#CC34CCC(OCc5c(-c6c(Cl)cncc6Cl)noc5C5CC5)(CC3)CC4)cc2c(N2CCOCC2)n1` [Example 548] gave an EC50 of 13 nM.

A further experiment addresses T1, FXR. The experiment can be described thus: FXR EC50 (FXR agonist activity reported with each example). The format is cell-based.
Conditions: not given
Consider `O=C(O)c1cc(F)cn2c(C#CC34CCC(OCc5c(-c6c(Cl)cncc6Cl)noc5C5CC5)(CC3)CC4)cnc12` [Example 520, 3-((4-((5-cyclopropyl-3-(3,5-dichloropyridin-4-yl)isoxazol-4-yl)methoxy)bicyclo[2.2.2]octan-1-yl)ethynyl)-6-fluoroimidazo[1,2-a]pyridine-8-carboxylic acid], for which a half-maximal effect (EC50) was put at 4 nM.

The compound `COc1nc(C(=O)O)cc2ccc(C#CC34CCC(OCc5c(-c6c(Cl)cncc6Cl)noc5C5CC5)(CC3)CC4)cc12` [Example 521, 7-((4-((5-cyclopropyl-3-(3,5-dichloropyridin-4-yl)isoxazol-4-yl)methoxy)bicyclo[2.2.2]octan-1-yl)ethynyl)-1-methoxyisoquinoline-3-carboxylic acid] returned an EC50 of 40 nM.

Take `COc1cc(C(=O)N(C)C)nc2ccc(C#CC34CCC(OCc5c(-c6c(Cl)cncc6Cl)noc5C5CC5)(CC3)CC4)cc12` [Example 522, 6-((4-((5-cyclopropyl-3-(3,5-dichloropyridin-4-yl)isoxazol-4-yl)methoxy)bicyclo[2.2.2]octan-1-yl)ethynyl)-4-methoxy-N,N-dimethylquinoline-2-carboxamide]: the concentration for a half-maximal effect (EC50) came out at 52 nM.

As for `O=C(O)c1cnc(N2CC(F)C2)c(C#CC23CCC(OCc4c(-c5c(Cl)cncc5Cl)noc4C4CC4)(CC2)CC3)c1` [Example 523, 5-((4-((5-cyclopropyl-3-(3,5-dichloropyridin-4-yl)isoxazol-4-yl)methoxy)bicyclo[2.2.2]octan-1-yl)ethynyl)-6-(3-fluoroazetidin-1-yl)nicotinic acid], it took 24 nM to reach a half-maximal effect (EC50).

As to `N#CC12CCC(OCc3c(-c4c(Cl)cccc4Cl)noc3C3CC3)(CC1)CC2` [Intermediate 70A, 4-((5-Cyclopropyl-3-(2,6-dichlorophenyl)isoxazol-4-yl)methoxy)bicyclo[2.2.2]octane-1-carbonitrile], the EC50 amounted to 470 nM.

On to `COC(=O)c1cccc(-c2noc(C34CCC(C=Cc5c(-c6c(Cl)cccc6Cl)noc5C5CC5)(CC3)CC4)n2)c1` [Intermediate 159F, methyl 3-(5-(4-(2-(5-cyclopropyl-3-(2,6-dichlorophenyl)isoxazol-4-yl)vinyl)bicyclo[2.2.2]octan-1-yl)-1,2,4-oxadiazol-3-yl)benzoate], for which the midpoint of the response, the EC50, lay at 4600 nM.

With `NC(=O)C12CCC(COCc3c(-c4c(Cl)cccc4Cl)noc3C3CC3)(CC1)CC2` [Intermediate 162C, 4-(((5-cyclopropyl-3-(2,6-dichlorophenyl)isoxazol-4-yl)methoxy)methyl)bicyclo[2.2.2]octane-1-carboxamide], a half-maximal response (EC50) required 180 nM. Against the preceding compound, the EC50 is about 26-fold lower.

As to `COC(=O)c1ccc(NC(=S)C23CCC(COCc4c(-c5c(Cl)cccc5Cl)noc4C4CC4)(CC2)CC3)c(Cl)c1` [Intermediate 168A, methyl 3-chloro-4-(4-(((5-cyclopropyl-3-(2,6-dichlorophenyl)isoxazol-4-yl)methoxy)methyl)bicyclo[2.2.2]octane-1-carbothioamido)benzoate], a half-maximal effect (EC50) was put at 4380 nM. This EC50 is about 24-fold higher than that of the compound before.

In turn, `COC(=O)c1ccc(NC(=O)C23CCC(COCc4c(-c5c(Cl)cccc5Cl)noc4C4CC4)(CC2)CC3)c(Cl)c1` [Intermediate 170A, methyl 3-chloro-4-(4-(((5-cyclopropyl-3-(2,6-dichlorophenyl)isoxazol-4-yl)methoxy)methyl)bicyclo[2.2.2]octane-1-carboxamido)benzoate] returned an EC50 of 2400 nM.

As to `COC(=O)c1ccc(C23CCC(CNc4c(-c5c(Cl)cccc5Cl)noc4C4CC4)(CC2)CO3)cc1` [Intermediate 203A, methyl 4-(4-(((5-cyclopropyl-3-(2,6-dichlorophenyl)isoxazol-4-yl)amino)methyl)-2-oxabicyclo[2.2.2]octan-1-yl)benzoate], the EC50 is 2800 nM. This EC50 and that of the compound before are within 1.5-fold of each other.

In turn, `COC(=O)c1ccc(-c2noc(C34CCC(C=Cc5c(-c6c(Cl)cccc6Cl)noc5C5CC5)(CC3)C4)n2)cc1` [Intermediate 226C, methyl 4-(5-(4-(2-(5-cyclopropyl-3-(2,6-dichlorophenyl)isoxazol-4-yl)vinyl)bicyclo[2.2.1]heptan-1-yl)-1,2,4-oxadiazol-3-yl)benzoate] had an EC50 of 2500 nM.

For the origin of these results see patent US10730863B2, “Bridged bicyclic compounds as farnesoid X receptor modulators” (BRISTOL-MYERS SQUIBB COMPANY, priority 2017, dated 2020).
